Measured values as given in paper doi:10.1101/2021.09.30.462449v1 (biorxiv, 2021).

What was measured:
[1] = molecular target: STK33 (Homo sapiens, UniProt Q9BYT3); assay: biochemical; details: read-out: % inhibition mean (Lanthascreen)
[2] = molecular target: MELK (Homo sapiens, UniProt Q14680); assay: ThermoFisher kinase profiling; format: biochemical; details: read-out: % inhibition at 1 μM
[3] = molecular target: CDK9/cyclin K (Homo sapiens, UniProt P50750); assay: biochemical; details: read-out: % inhibition mean (Lanthascreen)
[4] = molecular target: MAP2K5 (MEK5) (Homo sapiens, UniProt Q13163); assay: biochemical; details: read-out: % inhibition mean (Lanthascreen)
[5] = molecular target: TEK (TIE2) R849W (Homo sapiens, UniProt Q02763, R849W); assay: biochemical; details: read-out: % inhibition mean (Lanthascreen)
[6] = molecular target: ULK1 (Homo sapiens, UniProt O75385); assay: biochemical; details: read-out: % inhibition mean (Lanthascreen)
[7] = molecular target: NUAK2 (Homo sapiens, UniProt Q9H093); assay: biochemical; details: read-out: % inhibition mean (Lanthascreen)
[8] = molecular target: DAPK2 (Homo sapiens, UniProt Q9UIK4); assay: biochemical; details: read-out: % inhibition mean (Lanthascreen)
[9] = molecular target: STK38 (NDR) (Homo sapiens, UniProt Q15208); assay: biochemical; details: read-out: % inhibition mean (Lanthascreen)
[10] = molecular target: TGFBR2 (Homo sapiens, UniProt P37173); assay: biochemical; details: read-out: % inhibition mean (Lanthascreen)
[11] = molecular target: RIPK3 (Homo sapiens, UniProt Q9Y572); assay: biochemical; details: read-out: % inhibition mean (Lanthascreen)
[12] = molecular target: KIT V559D T670I (Homo sapiens, UniProt P10721, T670I/V559D); assay: biochemical; details: read-out: % inhibition mean (Lanthascreen)
[13] = molecular target: AMPK (A1/B1/G2) (Homo sapiens, UniProt Q13131); assay: biochemical; details: read-out: % inhibition mean (Lanthascreen)
[14] = molecular target: DMPK (Homo sapiens, UniProt Q09013); assay: biochemical; details: read-out: % inhibition mean (Lanthascreen)
[15] = molecular target: MAP2K2 (MEK2) (Homo sapiens, UniProt P36507); assay: biochemical; details: read-out: % inhibition mean (Lanthascreen)
[16] = molecular target: MYO3A (MYO3 alpha) (Homo sapiens, UniProt Q8NEV4); assay: biochemical; details: read-out: % inhibition mean (Lanthascreen)
[17] = molecular target: CLK4 (Homo sapiens, UniProt Q9HAZ1); assay: biochemical; details: read-out: % inhibition mean (Lanthascreen)
[18] = molecular target: FGFR3 G697C (Homo sapiens, UniProt P22607, G697C); assay: biochemical; details: read-out: % inhibition mean (Lanthascreen)
[19] = molecular target: ERN1 (Homo sapiens, UniProt O75460); assay: biochemical; details: read-out: % inhibition mean (Lanthascreen)
[20] = molecular target: FGFR1 V561M (Homo sapiens, UniProt P11362, V561M); assay: biochemical; details: read-out: % inhibition mean (Lanthascreen)
[21] = molecular target: AXL R499C (Homo sapiens, UniProt P30530, R499C); assay: biochemical; details: read-out: % inhibition mean (Lanthascreen)
[22] = molecular target: AMPK (A1/B1/G3) (Homo sapiens, UniProt Q13131); assay: biochemical; details: read-out: % inhibition mean (Lanthascreen)
[23] = molecular target: LIMK2 (Homo sapiens, UniProt P53671); assay: biochemical; details: read-out: % inhibition mean (Lanthascreen)
[24] = molecular target: WEE1 (Homo sapiens, UniProt P30291); assay: biochemical; details: read-out: % inhibition mean (Lanthascreen)
[25] = molecular target: MAP3K7/MAP3K7IP1 (TAK1-TAB1) (Homo sapiens, UniProt O43318); assay: biochemical; details: read-out: % inhibition mean (Lanthascreen)
[26] = molecular target: DYRK2 (Homo sapiens, UniProt Q92630); assay: biochemical; details: read-out: % inhibition mean (Lanthascreen)
[27] = molecular target: STK17A (DRAK1) (Homo sapiens, UniProt Q9UEE5); assay: biochemical; details: read-out: % inhibition mean (Lanthascreen)
[28] = molecular target: CDK2/cyclin E1 (Homo sapiens, UniProt P24941); assay: biochemical; details: read-out: % inhibition mean (Lanthascreen)

Chain of STK33 (Q9BYT3 whole entry): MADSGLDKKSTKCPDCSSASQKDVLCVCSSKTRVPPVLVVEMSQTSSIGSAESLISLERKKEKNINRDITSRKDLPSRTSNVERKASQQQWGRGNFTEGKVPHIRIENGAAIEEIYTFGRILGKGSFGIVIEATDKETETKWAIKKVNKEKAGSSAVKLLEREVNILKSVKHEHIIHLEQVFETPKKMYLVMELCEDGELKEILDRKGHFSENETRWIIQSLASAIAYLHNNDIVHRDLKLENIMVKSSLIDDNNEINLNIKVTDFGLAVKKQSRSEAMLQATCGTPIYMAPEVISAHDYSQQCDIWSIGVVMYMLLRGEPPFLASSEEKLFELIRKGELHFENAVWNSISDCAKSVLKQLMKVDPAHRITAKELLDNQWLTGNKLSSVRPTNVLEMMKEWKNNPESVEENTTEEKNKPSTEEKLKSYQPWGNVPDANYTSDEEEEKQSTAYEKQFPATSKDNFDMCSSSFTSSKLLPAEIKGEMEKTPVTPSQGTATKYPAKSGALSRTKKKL
Chain of RIPK3 (Q9Y572 whole entry): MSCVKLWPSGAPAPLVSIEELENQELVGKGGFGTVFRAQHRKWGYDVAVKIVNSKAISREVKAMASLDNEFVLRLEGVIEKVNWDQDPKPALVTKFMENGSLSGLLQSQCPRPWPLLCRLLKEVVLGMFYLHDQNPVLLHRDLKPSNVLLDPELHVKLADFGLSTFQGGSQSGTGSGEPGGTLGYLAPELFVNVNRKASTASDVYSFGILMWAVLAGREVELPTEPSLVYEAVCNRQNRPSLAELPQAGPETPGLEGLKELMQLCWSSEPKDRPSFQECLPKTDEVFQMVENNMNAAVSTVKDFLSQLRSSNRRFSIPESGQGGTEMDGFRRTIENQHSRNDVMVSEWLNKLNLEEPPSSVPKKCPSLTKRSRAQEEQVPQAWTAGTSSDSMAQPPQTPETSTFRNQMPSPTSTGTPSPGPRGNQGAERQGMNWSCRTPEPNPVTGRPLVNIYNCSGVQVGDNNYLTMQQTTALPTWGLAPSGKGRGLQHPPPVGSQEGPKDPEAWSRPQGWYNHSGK
Chain of MAP2K5 (MEK5) (Q13163 whole entry): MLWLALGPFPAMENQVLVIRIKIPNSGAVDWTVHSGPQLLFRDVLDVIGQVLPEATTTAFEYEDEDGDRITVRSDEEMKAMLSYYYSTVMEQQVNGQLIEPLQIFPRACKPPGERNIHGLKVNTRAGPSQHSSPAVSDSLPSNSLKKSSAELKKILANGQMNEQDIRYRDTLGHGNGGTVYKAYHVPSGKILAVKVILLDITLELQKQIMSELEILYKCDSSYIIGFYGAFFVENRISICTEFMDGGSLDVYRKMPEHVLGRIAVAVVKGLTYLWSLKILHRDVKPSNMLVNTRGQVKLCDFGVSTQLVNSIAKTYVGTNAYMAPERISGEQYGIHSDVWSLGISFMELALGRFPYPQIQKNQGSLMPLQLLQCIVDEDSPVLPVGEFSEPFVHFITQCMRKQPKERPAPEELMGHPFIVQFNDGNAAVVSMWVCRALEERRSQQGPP
Chain of STK38 (NDR) (Q15208 whole entry): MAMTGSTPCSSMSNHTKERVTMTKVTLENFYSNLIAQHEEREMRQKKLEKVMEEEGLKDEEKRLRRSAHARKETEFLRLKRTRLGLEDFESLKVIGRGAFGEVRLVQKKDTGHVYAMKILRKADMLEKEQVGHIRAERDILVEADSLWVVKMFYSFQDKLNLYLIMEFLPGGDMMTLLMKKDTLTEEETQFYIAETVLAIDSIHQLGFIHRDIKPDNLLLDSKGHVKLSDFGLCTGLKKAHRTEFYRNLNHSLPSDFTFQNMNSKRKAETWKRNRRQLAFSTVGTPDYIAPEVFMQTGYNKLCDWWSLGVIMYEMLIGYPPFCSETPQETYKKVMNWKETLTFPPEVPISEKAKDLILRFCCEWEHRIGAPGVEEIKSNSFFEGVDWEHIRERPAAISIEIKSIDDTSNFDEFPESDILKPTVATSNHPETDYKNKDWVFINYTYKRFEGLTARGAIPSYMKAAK
Chain of MYO3A (MYO3 alpha) (Q8NEV4 whole entry): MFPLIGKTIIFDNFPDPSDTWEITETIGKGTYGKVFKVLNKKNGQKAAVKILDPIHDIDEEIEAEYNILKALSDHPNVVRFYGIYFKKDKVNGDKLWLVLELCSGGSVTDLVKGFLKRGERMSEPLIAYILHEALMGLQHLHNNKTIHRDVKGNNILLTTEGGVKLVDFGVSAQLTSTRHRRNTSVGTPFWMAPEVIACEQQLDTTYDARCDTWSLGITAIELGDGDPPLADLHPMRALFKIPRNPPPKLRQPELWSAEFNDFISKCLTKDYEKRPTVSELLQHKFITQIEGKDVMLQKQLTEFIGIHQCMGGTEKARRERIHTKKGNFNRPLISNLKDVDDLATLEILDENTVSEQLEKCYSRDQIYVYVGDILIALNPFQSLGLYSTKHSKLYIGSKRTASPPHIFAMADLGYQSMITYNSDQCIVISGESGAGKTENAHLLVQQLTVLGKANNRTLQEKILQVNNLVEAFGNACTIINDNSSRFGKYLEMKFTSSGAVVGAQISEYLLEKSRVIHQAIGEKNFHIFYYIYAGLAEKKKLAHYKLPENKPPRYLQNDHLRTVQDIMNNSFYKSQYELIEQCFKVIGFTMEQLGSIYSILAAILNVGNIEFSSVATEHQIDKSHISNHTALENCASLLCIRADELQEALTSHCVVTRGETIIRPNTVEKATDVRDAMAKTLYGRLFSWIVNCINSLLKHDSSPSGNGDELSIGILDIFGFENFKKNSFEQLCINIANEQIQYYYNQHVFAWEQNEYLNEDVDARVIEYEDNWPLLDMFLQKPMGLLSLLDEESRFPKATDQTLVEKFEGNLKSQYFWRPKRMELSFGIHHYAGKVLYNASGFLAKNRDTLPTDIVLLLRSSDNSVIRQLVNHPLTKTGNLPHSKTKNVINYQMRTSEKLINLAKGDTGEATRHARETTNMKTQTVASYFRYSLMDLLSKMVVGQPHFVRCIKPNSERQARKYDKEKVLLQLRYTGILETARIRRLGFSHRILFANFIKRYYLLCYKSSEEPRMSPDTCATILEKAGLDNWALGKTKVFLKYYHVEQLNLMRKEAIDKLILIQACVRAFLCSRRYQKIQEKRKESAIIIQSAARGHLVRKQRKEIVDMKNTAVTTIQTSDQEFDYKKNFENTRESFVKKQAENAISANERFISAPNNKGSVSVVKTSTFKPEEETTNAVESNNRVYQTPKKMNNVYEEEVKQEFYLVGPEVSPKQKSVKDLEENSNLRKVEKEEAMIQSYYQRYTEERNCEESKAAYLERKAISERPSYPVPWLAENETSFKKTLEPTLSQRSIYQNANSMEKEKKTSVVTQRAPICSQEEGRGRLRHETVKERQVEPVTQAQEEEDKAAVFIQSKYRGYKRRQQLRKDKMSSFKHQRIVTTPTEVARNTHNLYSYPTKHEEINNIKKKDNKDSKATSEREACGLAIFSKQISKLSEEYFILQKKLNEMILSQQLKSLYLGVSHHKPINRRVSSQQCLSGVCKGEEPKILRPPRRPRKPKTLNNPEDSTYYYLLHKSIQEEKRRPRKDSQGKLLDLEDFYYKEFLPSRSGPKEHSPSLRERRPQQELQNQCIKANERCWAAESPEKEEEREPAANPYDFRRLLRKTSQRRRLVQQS
Chain of FGFR1 V561M (P11362 whole entry V561M): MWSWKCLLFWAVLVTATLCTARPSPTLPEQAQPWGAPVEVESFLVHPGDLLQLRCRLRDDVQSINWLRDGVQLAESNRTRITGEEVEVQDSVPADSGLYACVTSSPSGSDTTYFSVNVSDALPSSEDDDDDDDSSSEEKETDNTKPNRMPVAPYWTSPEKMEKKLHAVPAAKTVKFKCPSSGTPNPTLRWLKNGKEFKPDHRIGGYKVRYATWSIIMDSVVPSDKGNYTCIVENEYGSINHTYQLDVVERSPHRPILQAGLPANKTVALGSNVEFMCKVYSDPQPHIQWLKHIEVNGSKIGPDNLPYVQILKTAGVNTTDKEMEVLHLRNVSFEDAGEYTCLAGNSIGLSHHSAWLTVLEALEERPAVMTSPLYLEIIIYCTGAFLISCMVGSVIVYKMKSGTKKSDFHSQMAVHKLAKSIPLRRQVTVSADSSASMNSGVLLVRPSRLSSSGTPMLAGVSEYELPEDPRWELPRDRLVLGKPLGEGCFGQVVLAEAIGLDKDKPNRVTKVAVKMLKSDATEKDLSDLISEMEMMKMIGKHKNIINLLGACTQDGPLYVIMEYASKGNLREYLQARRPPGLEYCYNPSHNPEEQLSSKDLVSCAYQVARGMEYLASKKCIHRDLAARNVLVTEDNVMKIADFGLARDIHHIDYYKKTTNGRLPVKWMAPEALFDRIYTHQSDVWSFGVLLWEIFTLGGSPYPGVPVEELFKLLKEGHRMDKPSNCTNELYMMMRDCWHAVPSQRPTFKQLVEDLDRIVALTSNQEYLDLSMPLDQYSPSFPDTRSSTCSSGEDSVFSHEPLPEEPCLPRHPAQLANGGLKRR
Chain of DYRK2 (Q92630 whole entry): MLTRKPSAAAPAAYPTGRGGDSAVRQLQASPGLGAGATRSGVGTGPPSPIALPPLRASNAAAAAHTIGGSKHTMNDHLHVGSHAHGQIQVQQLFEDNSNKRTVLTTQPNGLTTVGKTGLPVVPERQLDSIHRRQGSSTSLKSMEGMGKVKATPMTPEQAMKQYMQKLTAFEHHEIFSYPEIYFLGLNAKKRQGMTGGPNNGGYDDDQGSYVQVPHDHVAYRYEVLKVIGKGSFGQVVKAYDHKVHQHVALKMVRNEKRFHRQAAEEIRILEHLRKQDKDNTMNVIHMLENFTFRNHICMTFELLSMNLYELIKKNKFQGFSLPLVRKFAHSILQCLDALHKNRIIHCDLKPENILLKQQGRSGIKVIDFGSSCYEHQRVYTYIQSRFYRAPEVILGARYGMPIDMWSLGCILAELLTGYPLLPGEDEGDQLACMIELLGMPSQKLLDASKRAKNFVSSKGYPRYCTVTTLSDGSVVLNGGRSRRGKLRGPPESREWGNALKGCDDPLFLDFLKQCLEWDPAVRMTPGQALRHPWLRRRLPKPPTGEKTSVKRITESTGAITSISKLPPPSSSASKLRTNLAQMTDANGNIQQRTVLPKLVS

COc1ccc2nc3cc(Cl)ccc3c(Nc3cc(CN4CCCC4)c(O)c(CN4CCCC4)c3)c2n1 [Pyronaridine, 4-[(7-Chloro-2-methoxybenzo[b][1,5]naphthyridin-10-yl)amino]-2,6-bis(1-pyrrolidinylmethyl)phenol phosphate (1:4)]
inhibition at 1 µM [1]: 11%
inhibition at 1 µM [2]: 31%
inhibition at 1 µM [3]: 5%
inhibition at 1 µM [4]: 1%
inhibition at 1 µM [5]: -3%
inhibition at 1 µM [6]: -4%
inhibition at 1 µM [7]: 2%
inhibition at 1 µM [8]: -6%
inhibition at 1 µM [9]: 2%
inhibition at 1 µM [10]: -4%
inhibition at 1 µM [11]: -7%
inhibition at 1 µM [12]: -10%
inhibition at 1 µM [13]: -7%
inhibition at 1 µM [14]: 4%
inhibition at 1 µM [15]: -3%
inhibition at 1 µM [16]: -6%
inhibition at 1 µM [17]: 6%
inhibition at 1 µM [18]: 7%
inhibition at 1 µM [19]: 6%
inhibition at 1 µM [20]: 5%
inhibition at 1 µM [21]: 3%
inhibition at 1 µM [22]: -1%
inhibition at 1 µM [23]: -1%
inhibition at 1 µM [24]: 10%
inhibition at 1 µM [25]: 1%
inhibition at 1 µM [26]: -7%
inhibition at 1 µM [27]: 1%
inhibition at 1 µM [28]: 0%
